Values belong to the compound of their own block, whether it stands above or below them. Activity calls are given as the source filed them. The rule behind the calls is not given here. Peptide text beside a SMILES is read from it.
Legend:
[1] = target: T1, E3 ubiquitin-protein ligase Mdm2 (Homo sapiens, UniProt Q00987); test: Binding affinity to 6xHis-taged MDM2 (unknown origin) expressed in Escherichia coli Gold (DE3) assessed as increase in signal-to-noise ratio at 0.1 mM by STD-NMR analysis
Target sequence in this assay (Q00987 whole entry, looked up): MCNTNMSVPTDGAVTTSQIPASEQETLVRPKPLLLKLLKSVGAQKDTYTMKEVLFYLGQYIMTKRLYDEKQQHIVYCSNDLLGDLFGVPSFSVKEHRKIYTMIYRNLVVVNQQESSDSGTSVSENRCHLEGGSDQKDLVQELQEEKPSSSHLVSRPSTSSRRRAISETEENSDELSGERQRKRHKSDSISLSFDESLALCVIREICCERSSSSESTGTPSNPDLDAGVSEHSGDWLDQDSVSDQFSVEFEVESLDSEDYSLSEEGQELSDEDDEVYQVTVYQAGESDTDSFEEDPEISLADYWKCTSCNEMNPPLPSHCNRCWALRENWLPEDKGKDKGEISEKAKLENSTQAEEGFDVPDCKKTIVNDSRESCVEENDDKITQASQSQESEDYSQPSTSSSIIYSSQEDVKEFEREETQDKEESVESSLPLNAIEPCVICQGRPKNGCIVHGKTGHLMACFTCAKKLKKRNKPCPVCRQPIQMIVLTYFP

[2] = target: T1, E3 ubiquitin-protein ligase Mdm2; test: Competitive binding affinity to 6xHis-taged MDM2 (unknown origin) expressed in Escherichia coli Gold (DE3) assessed as reduction in signal intensity at 0.1 mM in presence of 0.1 mM nutlin-3a by WATERLOGSY-NMR analysis
Target sequence in this assay (Q00987 whole entry, looked up): as above

[3] = target: T1, E3 ubiquitin-protein ligase Mdm2; test: Binding affinity to 6xHis-taged MDM2 (unknown origin) expressed in Escherichia coli Gold (DE3) assessed as change in signal intensity at 0.1 mM by WATERLOGSY-NMR analysis
Target sequence in this assay (Q00987 whole entry, looked up): as above

[4] = target: T1, E3 ubiquitin-protein ligase Mdm2; test: Binding affinity to 6xHis-taged MDM2 (unknown origin) expressed in Escherichia coli Gold (DE3) assessed as observation of positive signal at 0.1 mM by STD-NMR analysis
Target sequence in this assay (Q00987 whole entry, looked up): as above

[5] = target: T1, E3 ubiquitin-protein ligase Mdm2; test: Competitive binding affinity to 6xHis-taged MDM2 (unknown origin) expressed in Escherichia coli Gold (DE3) assessed as reduction in STD signal intensity at 0.1 mM in presence of 0.1 mM nutlin-3a by STD-NMR analysis
Target sequence in this assay (Q00987 whole entry, looked up): as above

[6] = target: T1, E3 ubiquitin-protein ligase Mdm2; test: Binding affinity to N-terminal 6xHis-tagged MDM2 (unknown origin) (1 to 126 residues) assessed as inhibition of MDM2/p53 protein-protein interaction by fluorescence anisotrophy assay
Target sequence in this assay (Q00987 whole entry): as the sequence (Q00987 whole entry, looked up) above

[7] = target: Ras-related protein Rab-6A (Homo sapiens, UniProt P20340); test: Binding affinity to RAB6A (unknown origin) assessed as inhibition of RAB6A/[…] protein-protein interaction
[8] = Binding affinity to IPTG-induced […] human TEV cleavage site-fused- GST-tagged beta-catenin (134 to 665 residues) assessed as inhibition of beta-catenin/axin protein-protein interaction after 45 mins by fluorescence polarization assay
[9] = target: T1, E3 ubiquitin-protein ligase Mdm2; test: Competitive binding affinity to 6xHis-taged MDM2 (unknown origin) expressed in Escherichia coli Gold (DE3) assessed as observation of residual signal at 0.1 mM in presence of 0.1 mM nutlin-3a by STD-NMR analysis
Target sequence in this assay (Q00987 whole entry, looked up): as above

[10] = target: T1, E3 ubiquitin-protein ligase Mdm2; test: Binding affinity to 6xHis-taged MDM2 (unknown origin) expressed in Escherichia coli Gold (DE3) assessed as inversion of signal intensity from negative to positive at 0.1 mM by WATERLOGSY-NMR analysis
Estrogen receptor = target: T2, Estrogen receptor (Homo sapiens, UniProt P03372); test: Binding affinity to IPTG-induced human ER alpha LBD (301 to 553 residues) expressed in Escherichia coli BL21 (DE3) assessed as inhibition of ER alpha/NR2A protein-protein interaction at 25 degree by surface plasmon resonance assay
T2 sequence (P03372 whole entry): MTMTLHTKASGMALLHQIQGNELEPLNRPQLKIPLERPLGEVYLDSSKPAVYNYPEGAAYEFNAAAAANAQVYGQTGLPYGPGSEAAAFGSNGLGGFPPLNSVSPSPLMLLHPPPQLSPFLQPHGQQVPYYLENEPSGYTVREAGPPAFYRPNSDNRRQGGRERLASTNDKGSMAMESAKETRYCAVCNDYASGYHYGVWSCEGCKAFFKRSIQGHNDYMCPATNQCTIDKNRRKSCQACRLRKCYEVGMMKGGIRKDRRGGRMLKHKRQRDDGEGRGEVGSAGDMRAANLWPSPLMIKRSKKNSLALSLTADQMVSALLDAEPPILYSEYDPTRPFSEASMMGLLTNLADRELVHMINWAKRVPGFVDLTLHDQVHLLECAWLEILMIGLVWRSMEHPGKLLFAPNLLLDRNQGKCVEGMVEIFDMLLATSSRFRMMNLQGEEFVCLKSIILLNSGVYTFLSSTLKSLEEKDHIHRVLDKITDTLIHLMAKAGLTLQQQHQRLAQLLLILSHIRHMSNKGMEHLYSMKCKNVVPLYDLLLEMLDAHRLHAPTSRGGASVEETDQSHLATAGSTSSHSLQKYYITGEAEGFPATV

[11] = Binding affinity to Plasmodium falciparum N-terminal His6-tagged MTIP expressed in Escherichia coli BL21 (DE3) assessed as inhibition of MTIP/MyoA protein-protein interaction at 303 K by isothermal titration calorimetry
[12] = target: T3, BTB/POZ domain-containing protein KCTD11 (Homo sapiens, UniProt Q693B1); test: Binding affinity to recombinant N-terminal poly His-Trx tagged KCTD11 (15 to 115 residues) (unknown origin) expressed in Escherichia coli assessed as inhibition of KCTD11/cullin3a protein-protein interaction by fluorescence polarization assay
T3 sequence (Q693B1 whole entry): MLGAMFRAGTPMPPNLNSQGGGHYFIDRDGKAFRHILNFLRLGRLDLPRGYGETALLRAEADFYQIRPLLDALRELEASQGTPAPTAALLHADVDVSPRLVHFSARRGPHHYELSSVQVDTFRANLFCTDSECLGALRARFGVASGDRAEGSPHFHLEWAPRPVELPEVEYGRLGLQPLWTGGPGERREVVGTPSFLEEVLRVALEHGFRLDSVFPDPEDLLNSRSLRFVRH

Menin = target: T4, Menin (Homo sapiens, UniProt O00255); test: Binding affinity to human Menin expressed in Escherichia coli BL21 (DE3) assessed as inhibition of Menin/MLL1 protein-protein at 20 degree C by isothermal titration calorimetry
T4 sequence (O00255 whole entry): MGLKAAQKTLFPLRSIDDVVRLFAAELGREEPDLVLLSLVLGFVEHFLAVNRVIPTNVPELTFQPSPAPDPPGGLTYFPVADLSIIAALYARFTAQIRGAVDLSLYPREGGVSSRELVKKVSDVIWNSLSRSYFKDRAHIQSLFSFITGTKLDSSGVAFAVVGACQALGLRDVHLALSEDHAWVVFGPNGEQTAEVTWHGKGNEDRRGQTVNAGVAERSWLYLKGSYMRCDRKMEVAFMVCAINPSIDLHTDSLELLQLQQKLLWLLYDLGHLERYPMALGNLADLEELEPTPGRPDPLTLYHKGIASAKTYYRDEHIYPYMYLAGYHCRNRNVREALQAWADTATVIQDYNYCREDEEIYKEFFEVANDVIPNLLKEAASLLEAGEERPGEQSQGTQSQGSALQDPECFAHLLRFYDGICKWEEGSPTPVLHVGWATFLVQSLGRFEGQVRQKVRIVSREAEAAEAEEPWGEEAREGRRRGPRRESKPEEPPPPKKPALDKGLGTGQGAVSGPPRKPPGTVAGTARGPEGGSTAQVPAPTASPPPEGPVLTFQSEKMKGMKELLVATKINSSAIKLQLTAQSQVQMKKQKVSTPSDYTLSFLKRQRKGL

Sequence of Ras-related protein Rab-6A (P20340 whole entry, the tested form may be a part): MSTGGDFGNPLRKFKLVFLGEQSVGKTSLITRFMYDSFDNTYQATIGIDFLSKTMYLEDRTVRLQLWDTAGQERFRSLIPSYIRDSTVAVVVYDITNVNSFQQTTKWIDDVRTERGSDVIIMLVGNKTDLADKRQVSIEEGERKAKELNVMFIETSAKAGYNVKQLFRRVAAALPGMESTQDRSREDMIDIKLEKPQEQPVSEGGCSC

SMILES: CC(C)C[C@H](NC(=O)[C@H](CC(C)C)NC(=O)[C@H](CCCCN)NC(=O)[C@H](Cc1c[nH]c2ccccc12)NC(=O)[C@H](CC(C)C)NC(=O)[C@H](CC(=O)O)NC(=O)[C@H](CO)NC(=O)[C@@H](N)Cc1ccccc1)C(=O)O
Activity [1]: Active
Activity [2]: Active
Activity [3]: Active
Activity [4]: Active
Activity [5]: Active
Kd [6]: 800 nM

SMILES: CC(C)C[C@H](NC(=O)[C@H](CC(C)C)NC(=O)[C@H](Cc1cnc[nH]1)NC(=O)[C@H](Cc1ccc(O)cc1)NC(=O)[C@H](CC(C)C)NC(=O)[C@H](Cc1ccccc1)NC(=O)[C@H](CCC(N)=O)NC(=O)[C@H](CCC(=O)O)NC(=O)[C@H](CCCCN)NC(=O)[C@H](CCC(=O)O)NC(=O)[C@H](CC(=O)O)NC(=O)[C@@H](N)CC(=O)O)C(=O)N[C@@H](CO)C(=O)N[C@@H](Cc1ccccc1)C(=O)N[C@@H](CC(N)=O)C(=O)N[C@@H](C)C(=O)N[C@H](C(=O)O)C(C)C (H-DDEKEQFLYHLLSFNAV-OH)
Kd [7]: 20000 nM

SMILES: CC[C@H](C)[C@H](NC(=O)[C@H](CO)NC(=O)[C@H](CCC(=O)O)NC(=O)[C@@H]1CCCN1C(=O)[C@H](CC(N)=O)NC(=O)[C@@H](N)CCC(=O)O)C(=O)N[C@@H](CC(C)C)C(=O)N[C@@H](CC(=O)O)C(=O)N[C@@H](CCC(=O)O)C(=O)N[C@@H](Cc1cnc[nH]1)C(=O)N[C@H](C(=O)N[C@@H](CCC(N)=O)C(=O)N[C@@H](CCCNC(=N)N)C(=O)N[C@H](C(=O)N[C@@H](CCSC)C(=O)O)C(C)C)C(C)C (H-ENPESILDEHVQRVM-OH)
Kd [8]: 5000 nM

SMILES: CC(C)C[C@H](NC(=O)[C@H](CCCCN)NC(=O)[C@H](Cc1c[nH]c2ccccc12)NC(=O)[C@H](CC(C)C)NC(=O)[C@H](CC(=O)O)NC(=O)[C@H](CO)NC(=O)[C@@H](N)Cc1ccccc1)C(=O)O (H-FSDLWKL-OH)
Activity [1]: Active
Activity [2]: Active
Activity [9]: Active
Activity [4]: Active
Activity [5]: Active
Activity [10]: Active
Kd [6]: 150000 nM

SMILES: CC[C@H](C)[C@H](NC(=O)[C@H](CCCCN)NC(=O)[C@@H](N)Cc1cnc[nH]1)C(=O)N[C@@H](CC(C)C)C(=O)N[C@@H](Cc1cnc[nH]1)C(=O)N[C@@H](CCCNC(=N)N)C(=O)N[C@@H](CC(C)C)C(=O)N[C@@H](CC(C)C)C(=O)N[C@@H](CCC(N)=O)C(=O)N[C@@H](CC(=O)O)C(=O)N[C@@H](CO)C(=O)O (H-HKILHRLLQDS-OH)
Kd (Estrogen receptor): 2500 nM

SMILES: CC[C@H](C)[C@H](NC(=O)[C@H](Cc1cnc[nH]1)NC(=O)[C@H](C)NC(=O)[C@H](CCC(N)=O)NC(=O)[C@@H](NC(=O)[C@H](CCCNC(=N)N)NC(=O)[C@H](CC(C)C)NC(=O)[C@H](CC(C)C)NC(=O)[C@H](CO)NC(=O)[C@@H]1CCCN1C(=O)[C@@H](NC(=O)[C@@H](N)CC(N)=O)[C@@H](C)CC)C(C)C)C(=O)N[C@@H](CCCNC(=N)N)C(=O)N[C@@H](CCCCN)C(=O)N[C@@H](CCCCN)C(=O)N[C@@H](CCSC)C(=O)N[C@H](C(=O)N[C@@H](C)C(=O)N[C@@H](CCC(N)=O)C(=O)O)C(C)C (H-NIPSLLRVQAHIRKKMVAQ-OH)
Kd [11]: 85 nM

Other lines, results leading:

Kd [12]: 497 nM
SMILES: CSCC[C@H](NC(=O)[C@@H](NC(=O)[C@H](Cc1ccc(O)cc1)NC(=O)[C@H](C)NC(=O)[C@H](CC(N)=O)NC(=O)[C@H](CCCNC(=N)N)NC(=O)[C@H](Cc1ccc(O)cc1)NC(=O)[C@H](CC(C)C)NC(=O)[C@H](CCC(=O)O)NC(=O)[C@H](CCC(=O)O)NC(=O)[C@H](Cc1ccccc1)NC(=O)[C@H](CO)NC(=O)[C@H](CC(C)C)NC(=O)CNC(=O)[C@H](CO)NC(=O)[C@@H](N)CC(N)=O)[C@@H](C)O)C(=O)N[C@H](C(=O)N[C@@H](CC(C)C)C(=O)N[C@@H](Cc1cnc[nH]1)C(=O)N[C@@H](CCCCN)C(=O)O)C(C)C (H-NSGLSFEELYRNAYTMVLHK-OH)

Kd (Menin): 82 nM
SMILES: C[C@H](NC(=O)[C@@H]1CCCN1C(=O)[C@H](Cc1ccccc1)NC(=O)[C@H](CCCNC(=N)N)NC(=O)[C@H](Cc1c[nH]c2ccccc12)NC(=O)[C@@H](N)CCCNC(=N)N)C(=O)N[C@@H](CCCNC(=N)N)C(=O)N1CCC[C@H]1C(=O)NCC(=O)N[C@H](C(=O)N[C@H](C(=O)NCC(=O)NCC(=O)NCC(=O)NCC(=O)NCC(=O)NCC(=O)NCC(=O)N[C@@H](CCCNC(=N)N)C(=O)N[C@@H](CCCNC(=N)N)C(=O)O)[C@@H](C)O)[C@@H](C)O (H-RWRFPARPGTTGGGGGGGRR-OH)

Reference: ChEMBL document CHEMBL4613322, “HOPPI-NMR: Hot-Peptide-Based Screening Assay for Inhibitors of Protein-Protein Interactions by NMR” (ACS Med Chem Lett, 2020)
